pEC50, pIC50, pKi: −log10 of the molar value. Where a name gives a salt, the structure may show the parent alone. Marks after values point to notes of the source that are not given here.
Experiments:
α1 (non-selective) = assay: Radioligand binding; design: species or system rat
hERG = biological target: T1, hERG (Homo sapiens, UniProt Q12809); assay: Radioligand binding; settings: read-out: % of control specific binding
T1 construct: purchased Eurofins CEREP

mice = assay: Formalin test (first screening); assay type: in vivo; settings: ip
guinea pigs = assay: Infiltration anesthesia (intradermal wheal test); assay type: in vivo
rats [1] = assay: Whole body plethysmography; assay type: in vivo; settings: 6, 10 and 20 mg/kg ip, 4-h test period
Experimental: Whole body plethysmography. The method, which detects the effects of a test substance on airway function, follows that described by Chong et al. and by Hamelmann et al.. Rats were placed individually in a single chamber plethysmograph (Buxco) in which they can move and drink freely. After a habituation period of 150 min, the following parameters were recorded: inspiratory time, expiratory time, peak inspiratory flow, peak expiratory flow, tidal volume, respiratory rate, relaxation time, pause, enhanced pause. All data generated were acquired using specialized EMKA Technologies software (lOX version 1.7.0; ANALYST version 1.49), connected to Buxco plethysmographic equipment. Recordings were taken for 30 min before and for 4 h after administration of the test substance. […] Each time point represented the mean value of a 2-min block (recorded 1 min before and 1 min after each time point). In cases where the data can be considered invalid, for example if recorded during a period of sniffing thereby causing a brief period of increased respiratory frequency, the retained values were those as close as possible to the theoretical time point. Results were expressed as absolute values and as percent changes from initial mean values (T0). […] Each test substance was evaluated at 3 doses (6 mg/kg, 10 mg/kg, and 20 mg/kg), administered ip, and compared with a vehicle control group. […]

murine astrocytes = assay: Crystal violet (CV) assay; assay type: cell-based
hNav1.7 sodium channel = biological target: T2, hNav1.7 sodium channel (Homo sapiens, UniProt Q15858); assay: Nav channel electrophysiology (IonWorks Quattro); assay type: cell-based
T2 construct: host or cells: CHO cells
T2 sequence (Q15858 whole entry): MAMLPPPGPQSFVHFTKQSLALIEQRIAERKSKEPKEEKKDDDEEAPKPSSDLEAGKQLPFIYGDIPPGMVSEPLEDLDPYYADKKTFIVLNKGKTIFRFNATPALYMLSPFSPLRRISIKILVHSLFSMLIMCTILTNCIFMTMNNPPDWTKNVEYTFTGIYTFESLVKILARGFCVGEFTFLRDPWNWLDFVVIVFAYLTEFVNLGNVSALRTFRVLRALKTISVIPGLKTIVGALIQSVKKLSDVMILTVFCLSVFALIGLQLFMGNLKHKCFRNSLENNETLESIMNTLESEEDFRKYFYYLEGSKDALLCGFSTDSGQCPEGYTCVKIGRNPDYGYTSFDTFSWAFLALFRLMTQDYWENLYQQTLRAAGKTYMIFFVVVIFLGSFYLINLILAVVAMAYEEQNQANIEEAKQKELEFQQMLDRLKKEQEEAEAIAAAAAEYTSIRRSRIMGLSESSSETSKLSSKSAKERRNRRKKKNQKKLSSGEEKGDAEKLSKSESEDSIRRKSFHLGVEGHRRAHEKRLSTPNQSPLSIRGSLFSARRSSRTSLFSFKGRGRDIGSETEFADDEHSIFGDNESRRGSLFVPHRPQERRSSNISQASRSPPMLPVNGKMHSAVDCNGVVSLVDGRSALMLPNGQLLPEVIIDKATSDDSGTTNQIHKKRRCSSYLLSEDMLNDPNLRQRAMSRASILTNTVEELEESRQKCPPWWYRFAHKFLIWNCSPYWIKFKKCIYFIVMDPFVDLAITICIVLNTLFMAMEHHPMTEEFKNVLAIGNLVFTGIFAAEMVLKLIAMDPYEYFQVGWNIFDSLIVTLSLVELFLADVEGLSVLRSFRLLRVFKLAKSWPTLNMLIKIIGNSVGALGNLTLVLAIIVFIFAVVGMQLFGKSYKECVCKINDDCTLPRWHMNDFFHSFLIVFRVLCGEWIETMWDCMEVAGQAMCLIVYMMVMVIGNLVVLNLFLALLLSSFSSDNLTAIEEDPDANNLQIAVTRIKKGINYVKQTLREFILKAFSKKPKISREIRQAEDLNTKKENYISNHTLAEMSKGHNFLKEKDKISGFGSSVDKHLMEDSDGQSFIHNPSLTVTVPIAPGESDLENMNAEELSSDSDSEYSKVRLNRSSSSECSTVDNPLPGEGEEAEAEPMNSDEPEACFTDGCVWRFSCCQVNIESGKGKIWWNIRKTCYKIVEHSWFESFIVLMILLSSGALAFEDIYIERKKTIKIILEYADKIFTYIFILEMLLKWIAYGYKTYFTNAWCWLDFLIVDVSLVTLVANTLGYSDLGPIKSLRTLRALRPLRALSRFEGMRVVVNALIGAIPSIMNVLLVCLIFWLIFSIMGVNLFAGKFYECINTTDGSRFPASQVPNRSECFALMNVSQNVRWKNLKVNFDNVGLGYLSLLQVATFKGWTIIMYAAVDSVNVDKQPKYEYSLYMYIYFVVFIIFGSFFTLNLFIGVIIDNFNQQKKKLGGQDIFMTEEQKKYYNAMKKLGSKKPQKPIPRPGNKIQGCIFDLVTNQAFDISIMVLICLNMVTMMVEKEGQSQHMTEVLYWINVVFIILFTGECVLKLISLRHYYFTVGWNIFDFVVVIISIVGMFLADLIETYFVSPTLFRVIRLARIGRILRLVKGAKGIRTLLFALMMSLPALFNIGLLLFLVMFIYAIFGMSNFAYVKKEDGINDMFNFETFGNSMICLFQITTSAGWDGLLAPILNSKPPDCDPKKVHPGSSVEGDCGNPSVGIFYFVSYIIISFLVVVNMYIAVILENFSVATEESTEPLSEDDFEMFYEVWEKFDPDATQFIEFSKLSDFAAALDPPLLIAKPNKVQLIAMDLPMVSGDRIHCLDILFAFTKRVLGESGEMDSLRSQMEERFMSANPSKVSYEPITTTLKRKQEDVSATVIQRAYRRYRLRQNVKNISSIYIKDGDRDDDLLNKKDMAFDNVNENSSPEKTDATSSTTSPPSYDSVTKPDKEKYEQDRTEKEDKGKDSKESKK

[2] = biological target: T3, hNav1.8/beta3 sodium channel (Homo sapiens, UniProt Q9Y5Y9); assay: Nav channel electrophysiology (IonWorks Quattro); assay type: cell-based
T3 construct: host or cells: CHO cells
T3 sequence (Q9Y5Y9 whole entry): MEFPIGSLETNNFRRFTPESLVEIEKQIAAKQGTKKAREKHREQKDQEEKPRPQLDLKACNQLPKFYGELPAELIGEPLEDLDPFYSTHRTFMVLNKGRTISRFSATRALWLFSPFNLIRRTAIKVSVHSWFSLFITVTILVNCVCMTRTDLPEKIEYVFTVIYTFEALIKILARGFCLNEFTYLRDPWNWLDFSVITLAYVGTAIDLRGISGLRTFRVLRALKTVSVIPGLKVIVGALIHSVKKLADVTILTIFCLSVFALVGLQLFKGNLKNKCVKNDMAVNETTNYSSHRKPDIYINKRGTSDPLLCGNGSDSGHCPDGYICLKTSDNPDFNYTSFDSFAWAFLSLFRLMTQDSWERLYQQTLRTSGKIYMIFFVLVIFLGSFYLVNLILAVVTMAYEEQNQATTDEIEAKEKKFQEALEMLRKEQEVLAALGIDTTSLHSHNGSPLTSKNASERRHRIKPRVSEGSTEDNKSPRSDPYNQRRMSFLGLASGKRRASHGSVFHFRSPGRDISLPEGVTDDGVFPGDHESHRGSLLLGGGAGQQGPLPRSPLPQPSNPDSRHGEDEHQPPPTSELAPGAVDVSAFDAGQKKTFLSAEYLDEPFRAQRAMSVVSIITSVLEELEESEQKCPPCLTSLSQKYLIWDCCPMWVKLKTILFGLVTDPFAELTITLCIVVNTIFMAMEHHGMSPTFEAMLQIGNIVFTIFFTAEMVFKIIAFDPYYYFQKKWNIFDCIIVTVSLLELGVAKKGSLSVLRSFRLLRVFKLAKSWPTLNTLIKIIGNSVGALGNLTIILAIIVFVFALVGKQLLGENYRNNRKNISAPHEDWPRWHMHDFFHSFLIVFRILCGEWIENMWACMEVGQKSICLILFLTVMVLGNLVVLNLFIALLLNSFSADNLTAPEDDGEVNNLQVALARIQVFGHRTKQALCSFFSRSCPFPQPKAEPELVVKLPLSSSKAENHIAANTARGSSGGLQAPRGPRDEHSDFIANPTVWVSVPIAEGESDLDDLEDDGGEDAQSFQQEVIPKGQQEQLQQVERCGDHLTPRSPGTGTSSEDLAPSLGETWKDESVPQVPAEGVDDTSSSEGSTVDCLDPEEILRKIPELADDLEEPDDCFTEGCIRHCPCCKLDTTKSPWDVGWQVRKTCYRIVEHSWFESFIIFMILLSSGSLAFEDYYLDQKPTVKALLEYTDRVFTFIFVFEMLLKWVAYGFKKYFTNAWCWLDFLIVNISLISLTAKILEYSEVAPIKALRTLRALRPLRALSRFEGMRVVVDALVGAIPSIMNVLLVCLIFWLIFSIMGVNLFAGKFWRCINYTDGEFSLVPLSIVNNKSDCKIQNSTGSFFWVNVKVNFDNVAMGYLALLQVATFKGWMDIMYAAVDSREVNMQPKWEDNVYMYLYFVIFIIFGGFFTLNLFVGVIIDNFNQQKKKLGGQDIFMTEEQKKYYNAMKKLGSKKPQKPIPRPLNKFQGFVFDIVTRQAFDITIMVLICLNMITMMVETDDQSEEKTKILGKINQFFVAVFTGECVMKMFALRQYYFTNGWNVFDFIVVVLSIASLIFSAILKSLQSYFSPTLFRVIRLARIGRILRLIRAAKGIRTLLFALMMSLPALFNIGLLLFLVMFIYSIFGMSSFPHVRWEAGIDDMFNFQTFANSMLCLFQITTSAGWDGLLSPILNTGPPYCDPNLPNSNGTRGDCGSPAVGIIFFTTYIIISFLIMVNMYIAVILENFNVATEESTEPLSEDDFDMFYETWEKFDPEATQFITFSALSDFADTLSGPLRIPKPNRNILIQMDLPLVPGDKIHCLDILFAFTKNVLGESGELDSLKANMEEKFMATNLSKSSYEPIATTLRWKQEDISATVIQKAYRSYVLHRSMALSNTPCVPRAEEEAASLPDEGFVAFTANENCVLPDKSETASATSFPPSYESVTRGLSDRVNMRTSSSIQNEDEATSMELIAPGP
T3 sequence (Q9NY72 25-215 partner limits assumed): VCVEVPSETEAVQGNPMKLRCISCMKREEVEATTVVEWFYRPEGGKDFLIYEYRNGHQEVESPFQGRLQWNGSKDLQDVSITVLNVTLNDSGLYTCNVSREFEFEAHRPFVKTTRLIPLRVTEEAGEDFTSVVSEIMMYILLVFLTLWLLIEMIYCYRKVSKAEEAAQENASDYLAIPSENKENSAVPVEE

[3] = Approximate solubility tests; assay type: physicochemical; settings: pH 9.9 borate buffer
Experimental: Borate buffer pH = 9.9 was selected as one of standard buffers at this pH range. […] Initially, three organic modifiers were considered: ethanol, dimethyl sulfoxide (DMSO) and 1,4-dioxane. […] Finally, dioxane was selected due to its higher boiling point, which reduced the risk of evaporation during a prolonged experiment. During the experiment, three degradation products were observed (tR = 13 min, tR = 15 min and tR = 17 min).

in vivo = settings: rat, ip
[4] = system: CYP1A2 (aryl hydrocarbon receptor); assay: In vitro metabolic gene induction studies; assay type: cell-based, human
Experimental: Anticonvulsant Screening prog ram
Test 28 - In Vitro Metabolic Gene Induction Studies
SolventCode: DMSO Solvent Prep: Unit: uM
Cell line source: Puracyp Molecular 257.7590
DateStarted: O5+eb-2O1O Date Completed: 15+eb-2010 Weig ht:
Reference: Lamb boolc#t! p9.77
lsoform Code: CyplAz Cell line: lAzDRE
Inducffon mechanism: aryl hydrocarbon receptor
Concentration Induction Cell
Fold +/- S.D Viability +/- S.D
0 1 +t- o.cs n 1n +L 2.2o n
Max induction 2 fold @ 200uM
. '^ (calculated): slgnificant decrease in viability at this concentation in vitso.
(1 picture or pasted object on this page, not shown here)

[5] = system: Salmonella enterica sv. Typhimurium TA 98; assay: Ames test
rats [6] = assay: Rotarod / TOX (neurotoxicity); settings: for Rotarod TD50: rats

## CCC(CO)NCCOc1c(C)cccc1Cl (stereo not drawn) [KM-408, R,S-2-((2-(2-chloro-6-methylphenoxy)ethyl)amino)butan-1-ol hydrochloride]
α1 (non-selective)
  pIC50: 4.92
  pKi: 5.48
α1 (non-selective); 0.01 μM
  % of control specific binding: 102.4%
α1 (non-selective); 0.1 μM
  % of control specific binding: 97.3%
α1 (non-selective); 1 μM
  % of control specific binding: 90.0%
α1 (non-selective); 10 μM
  % of control specific binding: 55.9%
α1 (non-selective); 100 μM
  % of control specific binding: 12.8%
hERG
  activity at 100 µM: 26.1%
mice; 30.0 mg/kg
  % of effect (II phase): 26.6%
  Time of licking paw ± SEM (I phase): 60.6 ± 8.0 s
  Time of licking paw ± SEM (II phase): 22.4 ± 6.5 s
mice
  formalin test (I phase): active at: 30 mg/kg
Guinea pigs; 0.125%, 30 min
  Inhibition of pain reaction: 33.3* %
Guinea pigs; 0.125%, 60 min
  Inhibition of pain reaction: 38.9* %
Guinea pigs; 0.125%, 120 min
  Inhibition of pain reaction: 33.3* %
Guinea pigs; 0.5%, 30 min
  Inhibition of pain reaction: 93.3*** %
Guinea pigs; 0.5%, 60 min
  Inhibition of pain reaction: 81.2*** %
Guinea pigs; 0.5%, 120 min
  Inhibition of pain reaction: 66.7*** %
Guinea pigs; 0.5%, 240 min
  Inhibition of pain reaction: 20.0%
Guinea pigs; […], 30 min
  Inhibition of pain reaction: 81.2*** %
Guinea pigs; […], 60 min
  Inhibition of pain reaction: 64.7** %
Guinea pigs; […], 120 min
  Inhibition of pain reaction: 70.6*** %
Guinea pigs; […], 240 min
  Inhibition of pain reaction: 33.3* %
Guinea pigs; guinea pigs
  infiltration anesthesia: active at: 0.125%
Rats [1]
  effects on respiratory parameters: No significant effects
Murine astrocytes
  impact on proliferation (crystal violet): did not exhibit cytotoxic activity and a notable impact on proliferation
hNav1.7 sodium channel; 10 Hz
  pIC50: 4.81
hNav1.7 sodium channel; Inactivated state
  pIC50: > 5.00
hNav1.7 sodium channel; Tonic block
  pIC50: 4.28
[2]; 10 Hz
  pIC50: 4.82
[2]; Inactivated state
  pIC50: > 5.00
[2]; Tonic block
  pIC50: 4.36
[3]; 20% dioxane
  solubility: dissolved fully
[3]; 20% ethanol
  solubility: dissolved fully
[3]; DMSO above 30%
  solubility: full solubility has not been achieved
In vivo
  TD50: 54.3 mg/kg

## CCC(CO)NCCOc1c(C)cccc1Cl (stereo not drawn) [Compound 4, R,S-2-((2-(2-chloro-6-methylphenoxy)ethyl)amino)butan-1-ol]
[4]; 1A2DRE cell line, read-out: EC50 (calculated)
  pEC50: 4.43
[4]; @ 200uM
  Max induction (calculated): 2 fold
[5]; 0.10 mM
  % of benzo[a]pyrene (+NADPH) control, + NADPH, Sample 1: 7.8%
  % of benzo[a]pyrene (+NADPH) control, + NADPH, Sample 2: 7.8%
  % of benzo[a]pyrene (+NADPH) control, − NADPH, Sample 1: 5.5%
  % of benzo[a]pyrene (+NADPH) control, − NADPH, Sample 2: 7.4%
[5]; 0.20 mM
  % of benzo[a]pyrene (+NADPH) control, + NADPH, Sample 1: 5.2%
  % of benzo[a]pyrene (+NADPH) control, + NADPH, Sample 2: 7.4%
  % of benzo[a]pyrene (+NADPH) control, − NADPH, Sample 1: 5.4%
  % of benzo[a]pyrene (+NADPH) control, − NADPH, Sample 2: 5.3%
[5]; 0.50 mM
  % of benzo[a]pyrene (+NADPH) control, + NADPH, Sample 1: 5.2%
  % of benzo[a]pyrene (+NADPH) control, + NADPH, Sample 2: 7%
  % of benzo[a]pyrene (+NADPH) control, − NADPH, Sample 1: 4.9%
  % of benzo[a]pyrene (+NADPH) control, − NADPH, Sample 2: 6.7%
[5]; 0.1–0.5 mM, compared to DMSO solvent control
  mutagenicity: non-mutagenic
Rats [6]; ip, listed as 348014
  Rotarod TD50: < 50 mg/kg
Rats [6]; po
  Rotarod TD50: > 240 mg/kg
Rats [6]; report of 16-Aug-2004 (rats, po)
  TOX TD50: > 60 mg/kg
